Results: article PMC6874057, “Synthesis of Chalcone Derivatives: Inducing Apoptosis of HepG2 Cells via Regulating Reactive Oxygen Species and Mitochondrial Pathway” (Frontiers in Pharmacology, 2019)

Tests used:
A549 = assay: MTT cell viability assay, A549; type: cell-based, human; settings: Homo sapiens, A549, 48 h, mean ± SE
Experimental: (§1) HeLa, A549, HepG2, HL-60, and WI-38 cell lines were incubated in DMEM solution containing 10% FBS for 48 h. The incubated tumor cells were seeded into 96-well plates (5 × 10^3 cells/well) to make them attach for 12 h. Afterwards, the cells were processed with the various concentrations of the synthetic compounds and 5-FU for 48 h. After removing the cell culture supernatant, 10 µl MTT (5 mg/ml) solution was dripped into the cells to generate a formazan product, which were dissolved by dimethyl sulfoxide (DMSO) 4 h later. Multifunction microplate reader (Bio-Rad Laboratories, Shanghai, China) was adopted to measure the absorbance at the wave length of 490 nm. The IC50 (the lowest drug concentration causing 50% of the tumor cells inhibition) was then calculated using GraphPad Prism Software (version 5.02) and used to indicate the cytotoxic effect of the target compounds on the selected tumor cells.

HepG2 cells [1] = assay: Cell cycle arrest by PI staining, flow cytometry; type: cell-based, human; settings: for G2/M: 24 h
Experimental: HepG2 cells were seeded into six-well plates (3 × 10^5/well) overnight to allow the cells to grow adherently and then incubated with a14 at the concentrations of 0, 30, 40, 50, 60 or 70 µM for 24 and 48 h. After the incubation time, the cells were collected by centrifugation (1000 r/min) and fixed overnight with […] ethanol at 4°C, and then the cells were removed and washed three times with ice-cold PBS. Afterwards, the cells were added to RNase A (Beijing Solarbio Science & Technology Co., Ltd.), and incubated for 30 min at 37°C, after which PI (Beijing Solarbio Science & Technology Co., Ltd.) was added. The fluorescence was monitored by a Beckman Coulter flow cytometer (Beckman Coulter, Inc. California). Ten thousand events were collected per sample, and the data were analyzed using Modfit LT 5.0 software.

HepG2 = assay: MTT cell viability assay, HepG2; type: cell-based, human; settings: Homo sapiens, HepG2, 48 h, mean ± SE
Experimental: as §1

[2] = system: adherent tumor cell lines (HepG2, A549 and Hela); assay: MTT assay, summary over adherent tumor cell lines; type: cell-based; settings: Homo sapiens; span of IC50 over compounds a11-a14 and adherent tumor cell lines; read-out: IC50 range over cell lines
Experimental: as §1

ROS level in HepG2 cells = assay: ROS level by DCFH-DA probe, flow cytometry; type: cell-based, human; settings: a14 50 µM, 8 h (0 h: 4351.6)
Experimental: HepG2 cells were seeded into six-well plates (3 × 10^5 cells/well) overnight to make the cells grow adherently and then incubated with a14 (50 µM) for 0, 3, 6, 8, 9, and 12 h. After that, the cells were added to 1 ml DCFH-DA (10 µM) and incubated for 30 min in the dark. After the cells were washed twice by the pre-cooled PBS, the cells were trypsinized and collected by centrifugation. The cells of the blank group were implemented the same experimental procedures, except for the process with a14. Besides, 5 mM N-acetyl-L-cysteine (NAC) was applied as anti-oxidative substance to prevent the oxidation of the cells, which could entirely block the production of ROS induced by a14. The generation levels of ROS were evaluated in fluorescence intensity (FL-1, 530 nm) by Beckman Coulter flow cytometer (Beckman Coulter, Inc. California). The data collected was analyzed using the CytExpert 2.0 software embedded in Beckman flow cytometry, and the histogram was plotted by Origin Pro8.

Hela = assay: MTT cell viability assay, Hela; type: cell-based, human; settings: Homo sapiens, HeLa, 48 h, mean ± SE
Experimental: as §1

HepG2 cells [3] = assay: DAPI staining, morphology of apoptotic cells; type: cell-based, human; settings: various concentrations, 48 h; in words
Experimental: Firstly, HepG2 cells (3 × 10^5 cells/well) were seeded into six-well plates and kept to attach overnight. Then, the cells were incubated with a14 at different concentrations (0, 30, 50, and 70 µM) for 48 h, washed by ice-cold PBS solution and fixed with 4% paraformaldehyde for 10 min at room temperature. The cells was processed by DAPI (10 µg/ml) for 15 min in the dark, and the residual DAPI was rinsed two more times by ice-cold PBS. Then, the cells were transferred on a glass slide, fixed with a coverslip and placed under a fluorescence microscope (Motic China Group Co., Ltd., Shenzhen, China) to be observed and photographed at an excitation wavelength of 480/30× nm and the emission wavelength of 515 nm. Condensation of chromatin and fragmentation of nuclei could be applied to determine the apoptotic cells.

Bax in HepG2 cells = assay: Western blot, Bax; type: cell-based, human; settings: different concentrations, 48 h, dose-dependent; in words
Experimental: HepG2 cells (3 × 10^5 cells/well) were seeded into a six-well plate overnight for adherence, and then treated with a14 (0, 30, 40, 50, 60, and 70 µM) for 48 h. After the cells were collected by centrifugation, they were lysed with the radio immunoprecipitation assay (RIPA) buffer (high) containing 50 mM Tris (pH = 7.4), 150 mM NaCl, 1% TritonX-100, 1% sodium deoxycholate, 0.1% sodium dodecyl sulfate (SDS), 2 mM sodium pyrophosphate, 25 mM β-glycerophosphate, 1 mM ethylenediaminetetraacetic acid (EDTA), 1 mM Na3VO4, and 0.5 ug/ml leupeptin (Beijing Solarbio Science & Technology Co., Ltd.).The extract was then centrifuged at 12,000 rpm for 30 min and the total protein concentration was quantified using the BCA kit (Beijing Solarbio Science & Technology Co., Ltd.). The protein extracts were mixed with the SDS-PAGE protein loading buffer (Beijing Solarbio Science & Technology Co., Ltd.) and then boiled in 100°C water bath for 10 min. The gel was gelatinized using an SDS Gel Kit (Beijing Solarbio Science & Technology Co., Ltd.) and protein extracts were separated by protein SDS-polyacrylamide gel electrophoresis and transferred to Immobilon-NC Membrane (Beijing Solarbio Science & Technology Co., Ltd.). […]

IC50 (A549): 36.7 ± 1.08 µM
IC50 (HepG2): 38.3 ± 0.59 µM
IC50 [2]: 23.3 to 54.4 µM
IC50 (Hela): 23.3 ± 2.35 µM
Structure (SMILES): COc1cc(/C=C/C(=O)c2ccc(O)c(C(N)=O)c2)cc(OC)c1OC [a14]
G2/M (HepG2 cells [1]; a14 30 µM): 19.07%
increase of percentage of G2/M compared with the untreated group (HepG2 cells [1]; a14 50 µM, 48 h): 73.82%
G2/M (HepG2 cells [1]; a14 70 µM): 79.57%
intracellular fluorescence intensity (DCFH-DA) (ROS level in HepG2 cells): 236197.3
morphological changes of the nucleus (DAPI) (HepG2 cells [3]): a large number of nuclear condensation and nuclear fragmentation
expression of pro-apoptotic proteins (Bax) (Bax in HepG2 cells): up-regulated
